Reference: EP0394553A2, “Use of fluorine containing pyridone carboxylic acid derivatives for preparing a medicament for the treatment of HIV infections” (DAIICHI PHARMACEUTICAL CO., LTD., priority 1989, dated 1990)
Where two headings read alike, the source gives them in different places.

Test system: HIV (LAV 1)
Test: microbe, parasite or virus in culture
Settings: for viability at 1 µg/mL / viability at 2.5 µg/mL / viability at 5 µg/mL / viability at 10 µg/mL: Human immunodeficiency virus 1, CCRF-CEM
Method: Human T cell-derived, T4 antigen-positive CEM cells (provided by the Institut Pasteur, France) were used as host cells of HIV. Cell culture was carried out in a carbon dioxide-containing atmosphere in an incubator maintained at 37°C according to a conventional method [cf. […] The culture supernatant (5×10⁶ TCID₅₀/ml) obtained by subjecting CEM cells to HIV (LAV 1) infection and stored at -70°C was used as the HIV source.
The medium for cell culture (10 ml) placed in a plastic culture flask (25 cm²) was inoculated with CEM cells at a cell density of 2.5×10⁵ cells/ml. After 3 days of incubation, the culture was transferred to a 15-ml centrifuge tube and subjected to centrifugation at 1,000 revolutions per minute for 5 minutes for sedimentation of cells and removal of the culture medium.
The stock viral suspension was added to the host cells thus prepared to an MOI of 0.05 and the mixture was maintained at 37°C for 90 minutes with stirring at 30-minute intervals for viral adsorption. The medium was added to HIV-infected cells to a cell density of 5.0×10⁵ cells/ml to give an HIV-infected cell suspension.
A mixture (1.0 ml) of the three constituents mentioned below was added to each well of a 24-well plastic culture plate and the test substance final concentration was adjusted to 10 mcg/ml, 5 mcg/ml, 2.5 mcg/ml or 1 mcg/ml. The "no addition" wells (0 mcg/ml) served as controls.
After 4 days of incubation following viral infection, the cells in each well on the 24-well culture plate were suspended uniformly by pipetting and a 0.5-ml portion of the suspension was separated. A 2.0-ml portion of test substance-free fresh medium was added to the remaining 0.5-ml portion of the cell suspension, followed by incubation.
Seven days after viral infection, pipetting was performed to give a uniform cell suspension in each well and a 0.5-ml portion of the suspension was separated.
Incubation was continued and, 10 days after viral infection, a uniform cell suspension was produced in the same manner in each well and a 1.5-ml portion thereof was separated. A fresh 2.0-ml portion of the medium free of (or containing) the test substance was added to the well, followed by further incubation.
Fifteen days after viral infection, the cells in each well were suspended uniformly in the same manner in the medium and a 2.0-ml portion of the suspension was separated. A fresh 2.0-ml portion of the medium free of (or containing) the test substance was added to the remaining 0.5 ml of the cell suspension and incubation was continued.
Medium exchange was performed in the same manner 20 days and 25 days after viral infection.
The cell suspensions collected 4 days, 7 days, 10 days, 20 days and 30 days after viral infection were tested for viable cell count and viable cell percentage by trypan blue staining. At the same time, viral antigen-positive cell percentage determination was carried out by immunofluorescence using an anti-HIV antiserum isolated from a healthy carrier of HIV.
The numerical values given each is the mean for the respective two wells on the culture plate. The viable cell count is the total cell count minus the count of dead cells stained with trypan blue. The viable cell percentage is the percentage of viable cells among all the cells including dead cells. The viral antigen-positive cell percentage is the percentage of cells indicating antigen expression as found among all the cells including dead cells.

[1] = 1 mcg/ml, 4-day addition, after 4 days
[2] = 1 mcg/ml, 4-day addition, after 7 days
[3] = 1 mcg/ml, 4-day addition, after 10 days
[4] = 1 mcg/ml, 4-day addition, after 20 days
[5] = 1 mcg/ml, continuous addition, after 4 days
[6] = 1 mcg/ml, continuous addition, after 7 days
[7] = 1 mcg/ml, continuous addition, after 10 days
[8] = 2.5 mcg/ml, 4-day addition, after 4 days
[9] = 2.5 mcg/ml, 4-day addition, after 7 days
[10] = 2.5 mcg/ml, 4-day addition, after 10 days
[11] = 2.5 mcg/ml, 4-day addition, after 20 days
[12] = 2.5 mcg/ml, 4-day addition, after 30 days
[13] = 2.5 mcg/ml, continuous addition, after 4 days
[14] = 2.5 mcg/ml, continuous addition, after 7 days
[15] = 2.5 mcg/ml, continuous addition, after 10 days
[16] = 2.5 mcg/ml, continuous addition, after 20 days
[17] = 2.5 mcg/ml, continuous addition, after 30 days
[18] = 5 mcg/ml, 4-day addition, after 4 days
[19] = 5 mcg/ml, 4-day addition, after 7 days
[20] = 5 mcg/ml, 4-day addition, after 10 days
[21] = 5 mcg/ml, 4-day addition, after 20 days
[22] = 5 mcg/ml, 4-day addition, after 30 days
[23] = 5 mcg/ml, continuous addition, after 4 days
[24] = 5 mcg/ml, continuous addition, after 7 days
[25] = 5 mcg/ml, continuous addition, after 10 days
[26] = 5 mcg/ml, continuous addition, after 20 days
[27] = 5 mcg/ml, continuous addition, after 30 days
[28] = 10 mcg/ml, 4-day addition, after 4 days
[29] = 10 mcg/ml, 4-day addition, after 7 days
[30] = 10 mcg/ml, 4-day addition, after 10 days
[31] = 10 mcg/ml, 4-day addition, after 20 days
[32] = 10 mcg/ml, 4-day addition, after 30 days
[33] = 10 mcg/ml, continuous addition, after 4 days
[34] = 10 mcg/ml, continuous addition, after 7 days
[35] = 10 mcg/ml, continuous addition, after 10 days
[36] = 10 mcg/ml, continuous addition, after 20 days
[37] = 10 mcg/ml, continuous addition, after 30 days

CC1COc2c(N3CCN(C)CC3)c(F)cc3c(=O)c(C(=O)O)cn1c23 (racemic) [OFLX, (±)-9-fluoro-3-methyl-10-(4-methyl-1-piperazinyl)-7-oxo-2,3-dihydro-7H-pyrido[1,2,3-de][1,4]benzoxazine-6-carboxylic acid]
Viable cell count [1]: 260 × 10⁴ cells/ml
Viral antigen-positive cell percentage [1]: 88%
Viable cell count [2]: 43 × 10⁴ cells/ml
Viral antigen-positive cell percentage [2]: 80%
Viable cell count [3]: 13 × 10⁴ cells/ml
Viral antigen-positive cell percentage [3]: 77%
Viable cell count [4]: 34 × 10⁴ cells/ml
Viral antigen-positive cell percentage [4]: 16%
Viable cell count (1 mcg/ml, 4-day addition, after 30 days): 10 × 10⁴ cells/ml
Viable cell count [5]: 300 × 10⁴ cells/ml
Viral antigen-positive cell percentage [5]: 82%
Viable cell count [6]: 39 × 10⁴ cells/ml
Viral antigen-positive cell percentage [6]: 78%
Viable cell count [7]: 46 × 10⁴ cells/ml
Viral antigen-positive cell percentage [7]: 85%
Viable cell count (1 mcg/ml, continuous addition, after 20 days): 15 × 10⁴ cells/ml
Viable cell count (1 mcg/ml, continuous addition, after 30 days): 11 × 10⁴ cells/ml
Viable cell count [8]: 260 × 10⁴ cells/ml
Viral antigen-positive cell percentage [8]: 80%
Viable cell count [9]: 58 × 10⁴ cells/ml
Viral antigen-positive cell percentage [9]: 67%
Viable cell count [10]: 83 × 10⁴ cells/ml
Viral antigen-positive cell percentage [10]: 49%
Viable cell count [11]: 300 × 10⁴ cells/ml
Viral antigen-positive cell percentage [11]: 4%
Viable cell count [12]: 300 × 10⁴ cells/ml
Viral antigen-positive cell percentage [12]: 6%
Viable cell count [13]: 260 × 10⁴ cells/ml
Viral antigen-positive cell percentage [13]: 83%
Viable cell count [14]: 59 × 10⁴ cells/ml
Viral antigen-positive cell percentage [14]: 62%
Viable cell count [15]: 110 × 10⁴ cells/ml
Viral antigen-positive cell percentage [15]: 38%
Viable cell count [16]: 220 × 10⁴ cells/ml
Viral antigen-positive cell percentage [16]: 17%
Viable cell count [17]: 360 × 10⁴ cells/ml
Viral antigen-positive cell percentage [17]: 10%
Viable cell count [18]: 250 × 10⁴ cells/ml
Viral antigen-positive cell percentage [18]: 82%
Viable cell count [19]: 60 × 10⁴ cells/ml
Viral antigen-positive cell percentage [19]: 50%
Viable cell count [20]: 170 × 10⁴ cells/ml
Viral antigen-positive cell percentage [20]: 33%
Viable cell count [21]: 320 × 10⁴ cells/ml
Viral antigen-positive cell percentage [21]: 5%
Viable cell count [22]: 330 × 10⁴ cells/ml
Viral antigen-positive cell percentage [22]: 4%
Viable cell count [23]: 340 × 10⁴ cells/ml
Viral antigen-positive cell percentage [23]: 75%
Viable cell count [24]: 58 × 10⁴ cells/ml
Viral antigen-positive cell percentage [24]: 76%
Viable cell count [25]: 160 × 10⁴ cells/ml
Viral antigen-positive cell percentage [25]: 40%
Viable cell count [26]: 300 × 10⁴ cells/ml
Viral antigen-positive cell percentage [26]: 11%
Viable cell count [27]: 290 × 10⁴ cells/ml
Viral antigen-positive cell percentage [27]: 2%
Viable cell count [28]: 260 × 10⁴ cells/ml
Viral antigen-positive cell percentage [28]: 74%
Viable cell count [29]: 63 × 10⁴ cells/ml
Viral antigen-positive cell percentage [29]: 63%
Viable cell count [30]: 280 × 10⁴ cells/ml
Viral antigen-positive cell percentage [30]: 40%
Viable cell count [31]: 310 × 10⁴ cells/ml
Viral antigen-positive cell percentage [31]: 14%
Viable cell count [32]: 320 × 10⁴ cells/ml
Viral antigen-positive cell percentage [32]: 3%
Viable cell count [33]: 280 × 10⁴ cells/ml
Viral antigen-positive cell percentage [33]: 78%
Viable cell count [34]: 55 × 10⁴ cells/ml
Viral antigen-positive cell percentage [34]: 72%
Viable cell count [35]: 130 × 10⁴ cells/ml
Viral antigen-positive cell percentage [35]: 43%
Viable cell count [36]: 290 × 10⁴ cells/ml
Viral antigen-positive cell percentage [36]: 9%
Viable cell count [37]: 390 × 10⁴ cells/ml
Viral antigen-positive cell percentage [37]: 6%
viability at 1 µg/mL (96 h, read-out: Viable cell percentage, 1 mcg/ml, 4-day addition, after 4 days): 96%
viability at 1 µg/mL (96 h, read-out: Viable cell percentage, 1 mcg/ml, continuous addition, after 4 days): 94%
viability at 2.5 µg/mL (96 h, read-out: Viable cell percentage, 2.5 mcg/ml, 4-day addition, after 4 days): 96%
viability at 2.5 µg/mL (96 h, read-out: Viable cell percentage, 2.5 mcg/ml, continuous addition, after 4 days): 94%
viability at 5 µg/mL (96 h, read-out: Viable cell percentage, 5 mcg/ml, 4-day addition, after 4 days): 93%
viability at 5 µg/mL (96 h, read-out: Viable cell percentage, 5 mcg/ml, continuous addition, after 4 days): 98%
viability at 10 µg/mL (96 h, read-out: Viable cell percentage, 10 mcg/ml, 4-day addition, after 4 days): 94%
viability at 10 µg/mL (96 h, read-out: Viable cell percentage, 10 mcg/ml, continuous addition, after 4 days): 95%
viability at 1 µg/mL (168 h, read-out: Viable cell percentage, 1 mcg/ml, continuous addition, after 7 days): 55%
viability at 2.5 µg/mL (168 h, read-out: Viable cell percentage, 2.5 mcg/ml, continuous addition, after 7 days): 64%
viability at 5 µg/mL (168 h, read-out: Viable cell percentage, 5 mcg/ml, continuous addition, after 7 days): 64%
viability at 10 µg/mL (168 h, read-out: Viable cell percentage, 10 mcg/ml, continuous addition, after 7 days): 66%
viability at 1 µg/mL (240 h, read-out: Viable cell percentage, 1 mcg/ml, continuous addition, after 10 days): 42%
viability at 2.5 µg/mL (240 h, read-out: Viable cell percentage, 2.5 mcg/ml, continuous addition, after 10 days): 81%
viability at 5 µg/mL (240 h, read-out: Viable cell percentage, 5 mcg/ml, continuous addition, after 10 days): 87%
viability at 10 µg/mL (240 h, read-out: Viable cell percentage, 10 mcg/ml, continuous addition, after 10 days): 87%
viability at 1 µg/mL (480 h, read-out: Viable cell percentage, 1 mcg/ml, continuous addition, after 20 days): 75%
viability at 2.5 µg/mL (480 h, read-out: Viable cell percentage, 2.5 mcg/ml, continuous addition, after 20 days): 94%
viability at 5 µg/mL (480 h, read-out: Viable cell percentage, 5 mcg/ml, continuous addition, after 20 days): 95%
viability at 10 µg/mL (480 h, read-out: Viable cell percentage, 10 mcg/ml, continuous addition, after 20 days): 92%
viability at 1 µg/mL (read-out: Viable cell percentage, 1 mcg/ml, 4-day addition, after 7 days): 53%
viability at 1 µg/mL (read-out: Viable cell percentage, 1 mcg/ml, 4-day addition, after 10 days): 21%
viability at 1 µg/mL (read-out: Viable cell percentage, 1 mcg/ml, 4-day addition, after 20 days): 87%
viability at 1 µg/mL (read-out: Viable cell percentage, 1 mcg/ml, 4-day addition, after 30 days): 37%
viability at 1 µg/mL (read-out: Viable cell percentage, 1 mcg/ml, continuous addition, after 30 days): 33%
viability at 2.5 µg/mL (read-out: Viable cell percentage, 2.5 mcg/ml, 4-day addition, after 7 days): 67%
viability at 2.5 µg/mL (read-out: Viable cell percentage, 2.5 mcg/ml, 4-day addition, after 10 days): 67%
viability at 2.5 µg/mL (read-out: Viable cell percentage, 2.5 mcg/ml, 4-day addition, after 20 days): 95%
viability at 2.5 µg/mL (read-out: Viable cell percentage, 2.5 mcg/ml, 4-day addition, after 30 days): 97%
viability at 2.5 µg/mL (read-out: Viable cell percentage, 2.5 mcg/ml, continuous addition, after 30 days): 97%
viability at 5 µg/mL (read-out: Viable cell percentage, 5 mcg/ml, 4-day addition, after 7 days): 59%
viability at 5 µg/mL (read-out: Viable cell percentage, 5 mcg/ml, 4-day addition, after 10 days): 77%
viability at 5 µg/mL (read-out: Viable cell percentage, 5 mcg/ml, 4-day addition, after 20 days): 86%
viability at 5 µg/mL (read-out: Viable cell percentage, 5 mcg/ml, 4-day addition, after 30 days): 97%
viability at 5 µg/mL (read-out: Viable cell percentage, 5 mcg/ml, continuous addition, after 30 days): 94%
viability at 10 µg/mL (read-out: Viable cell percentage, 10 mcg/ml, 4-day addition, after 7 days): 73%
viability at 10 µg/mL (read-out: Viable cell percentage, 10 mcg/ml, 4-day addition, after 10 days): 85%
viability at 10 µg/mL (read-out: Viable cell percentage, 10 mcg/ml, 4-day addition, after 20 days): 92%
viability at 10 µg/mL (read-out: Viable cell percentage, 10 mcg/ml, 4-day addition, after 30 days): 95%
viability at 10 µg/mL (read-out: Viable cell percentage, 10 mcg/ml, continuous addition, after 30 days): 95%
